Reference: article PMC4716659 (European journal of medicinal chemistry, 2015)
In brackets after ≈: the same amount, converted by molar mass.

Test system: methicillin-resistant Staphylococcus aureus (MRSA) ATCC 43300
Assay: MIC, broth microdilution
Format: cell-based
Settings: MRSA ATCC 43300
[1] = Staphylococcus aureus, ATCC43300|MRSA

MIC [1] [µg/mL]	MIC [µg/mL]	Structure (SMILES)
44.2 (≈ 133 µM)	–	CCCCc1ccc(-c2nc(C)c(C(=O)NCN(C)C)s2)cc1 [compound 13, 2-(4-Butylphenyl)-N-[(dimethylamino)methyl]-4-methylthiazole-5-carboxamide]
> 35.1	>38.3	CCCCc1ccc(-c2nc(C)c(-c3nnn[nH]3)s2)cc1 [compound 16, 2-(4-Butylphenyl)-4-methyl-5-(1H-tetrazol-5-yl)thiazole]
> 43.9	–	CC(=O)c1sc(-c2ccc(-c3cccc4ccccc34)cc2)nc1C [compound 24, 1-(4-Methyl-2-(4-(naphthalen-1-yl)phenyl)thiazol-5-yl)ethanone]

Continued, compound first:

Structure (SMILES)	MIC [1] [µg/mL]	MIC [µg/mL]
CCCCc1ccc(-c2nc(C)c(C(=O)NC(=N)NC(=N)N)s2)cc1 [compound 10, 2-(4-Butylphenyl)-N-(N-carbamimidoylcarbamimidoyl)-4-methylthiazole-5-carboxamide]	> 45.8	–
CCCCc1ccc(-c2nc(C)c(C(=O)NNC(=N)N)s2)cc1 [compound 11, 2-(2-(4-Butylphenyl)-4-methylthiazole-5-carbonyl)hydrazinecarboximidamide]	> 42.4	–
CCCCc1ccc(-c2nc(C)c(C(=O)NC[C@@H](O)CO)s2)cc1 [compound 12, (R)-2-(4-Butylphenyl)-N-(2,3-dihydroxypropyl)-4methylthiazole-5-carboxamide]	44.5 (≈ 128 µM)	–
CCCCc1ccc(-c2nc(C)c(/C(N)=N/O)s2)cc1 [compound 15, (Z)-2-(4-Butylphenyl)-N′-hydroxy-4-methylthiazole-5-carboximidamide]	> 35.1	>37.0
[H]/N=C(\N)NN=C(C)c1sc(-c2ccc(N)cc2)nc1C [compound 19, (E)-2-(1-(4-Methyl-2-(4-aminophenyl)thiazol-5-yl)ethylidene) hydrazinecarboximidamide]	–	>36.9
